Like-named read-outs stand apart in the source and are kept apart here.
Assays:
SARS-CoV-2 M^Pro [1] = target: T1, SARS-CoV-2 M^Pro (Severe acute respiratory syndrome coronavirus 2, UniProt P0DTD1); experiment: Determination of kinact/KI values for SARS-CoV-2 M^Pro (time- and concentration-dependent inactivation); format: biochemical
Description: where νo is the initial velocity of uninhibited reaction and νi is the initial velocity in the presence of inhibitor. All measurements were done in triplicate. Determination of kinact/KI values for SARS-CoV-2 M^Pro
Time- and concentration-dependent inactivation assays were done by following a similar protocol as described for Ki determination. M^Pro (12.5 nM final) was treated with the peptide-substrate (30 μM final) and test inhibitor (0-80 μM for D-FF(R/Cit)-(CMK/CMKyne); 0-1.25 mM for SM136-145) at time=0 to initiate inactivation process. The total volume of the assay mixture was 50 μL. Time-dependent increase in fluorescence was monitored at 485 nm with excitation at 340 nm for a period of 20-25 min. The observed rates (kobs) for the peptide cleavage in both the presence and absence of inhibitor were determined by fitting to a single-phase association equation. The resulting kobs values were plotted against the concentrations of inhibitor and linear fits were used to derive the slope that afforded the kinact/KI values. All measurements were done in triplicate.

Cathepsin L = target: T2, Cathepsin L (Homo sapiens, UniProt P07711); experiment: Cathepsin L inhibition assay kit (Abcam), IC50 and kinact/KI; format: biochemical; settings: for IC50: 20 min pretreatment; for kinact/KI: read-out: Cathepsin L kinact/KI
T2 construct: purchased Abcam ab197012
Description: (§1) Determination of IC50 and kinact/KI values for Cathepsins L and B
IC50 and kinact/KI values of the inhibitors were determined using commercially available inhibition assay kits (Abcam) by following the manufacturer's protocol. […] The observed rates (kobs) were determined by fitting to a single-phase association equation. The resulting kobs values were plotted against the concentrations of inhibitor and the data were fit to equation 2 to derive the kinact/KI values,
using GraphPad Prism, where kinact is the maximal rate of inactivation, KI is the concentration of inhibitor that affords half-maximal inactivation, and [I] is the concentration of inhibitor. When kobs with [I] varied linearly, kinact/KI was determined from the slope of the line. All the experiments were performed in triplicate. […] Crystallization of M^Pro in Complex with Inhibitors

SARS-CoV-2 = experiment: microbe, parasite or virus in culture; format: cell-based; settings: for EC50: read-out: EC50, inhibition of SARS-CoV-2 infection; for IC50: hACE2 expressing A549 cells, read-out: IC50, block of SARS-CoV2 replication; for EC90: read-out: EC90, inhibition of SARS-CoV-2 infection
Cathepsin B = target: T3, Cathepsin B (Homo sapiens, UniProt P07858); experiment: Cathepsin B inhibition assay kit (Abcam), IC50; format: biochemical; settings: 20 min pretreatment
T3 construct: purchased Abcam ab185438
Description: as §1
IC50 and kinact/KI values of the inhibitors were determined using commercially available inhibition assay kits (Abcam) by following the manufacturer's protocol. For IC50 values, enzymes were pretreated with test inhibitor (0-50 μM) for 20 min prior to adding the fluorogenic substrate, and end-point fluorescence was recorded after 30 min. For the kinact/KI values, enzymes were treated with inhibitor and substrate simultaneously and increase in fluorescence was monitored over 60 min. The observed rates (kobs) were determined by fitting to a single-phase association equation. The resulting kobs values were plotted against the concentrations of inhibitor and the data were fit to equation 2 to derive the kinact/KI values,
using GraphPad Prism, where kinact is the maximal rate of inactivation, KI is the concentration of inhibitor that affords half-maximal inactivation, and [I] is the concentration of inhibitor. When kobs with [I] varied linearly, kinact/KI was determined from the slope of the line. All the experiments were performed in triplicate. All fluorescence measurements were taken at absorption/emission wavelength of 400/505 nm using an EnVision 2105 plate reader. Crystallization of M^Pro in Complex with Inhibitors

[2] = Pharmacokinetic parameters in mice (plasma, LC-MS/MS); settings: for CI_Obs: IV
Description: Pharmacokinetics were evaluated in male C57Bl/6 mice, approximately 25 g. Test compounds were formulated at 0.3 mg/mL for intravenous dosing and 1 mg/mL for oral gavage. Formulation concentrations reflect free-base concentrations. Formulations were prepared by dissolving in DMSO (20× stock) and mixing 1:1 with tween-80. Prior to dosing, the formulation was diluted with sterile saline. The final formulation was 5% DMSO, 5% tween-80, 90% saline (v:v:v). Mice (n=3) were dosed at 10 μL per gram body weight. […] A total of 25 μL blood was collected at each time point. The hematocrit tubes were sealed with a wax plug and held on ice until plasma could be isolated via centrifugation in a microcentrifuge fit with a hematocrit rotor.
Drug levels were determined from 5 μL plasma. Plasma was treated with 75 μL 90/10 acetonitrile/water containing Carbamazepine as an internal standard (IS). Samples were loaded to a 96-well Millipore Multiscreen Solvinter 0.45 micron low binding PTFE hydrophilic filter plate and the filtrate was directly analyzed. All plasma samples were treated with 75 μL 90/10 acetonitrile/water with Carbamazepine as internal standard (IS) to extract the analyte and precipitate protein. The plates were agitated on ice for approximately five minutes prior to centrifugation into a collection plate. Separate standard curves were prepared in blank mouse plasma and brain homogenate and processed in parallel with the samples. The filtrate was directly analyzed by LC-MS/MS.

M^Pro = M^Pro (Severe acute respiratory syndrome coronavirus 2, UniProt P0DTD1); experiment: Labelling of A549-hACE2 lysate spiked with recombinant M^Pro with SM144, competition by SM141 or SM142; format: binding, SARS-CoV-2; settings: 250 nM M^Pro spiked, 2.5 μM SM144, 2.5-25 μM competitor
Description: A549-hACE2 cells were grown in the DMEM medium (supplemented with 10% heat-inactivated fetal bovine serum, 100 units/mL penicillin and 100 μg/mL streptomycin). Upon reaching ˜90% confluence, cells were collected using a cell scraper, harvested by centrifugation at 3,000 rpm for 5 min and were resuspended in 1×PBS supplemented with 1% NP-40. Then the cells were lysed using a probe sonicator and lysates were cleared by centrifugation at 21000 g for 15 min. Soluble proteins in the lysate were quantified by DC-assay (Bio-Rad).
A549-hACE2 lysate (2 mg/mL, 50 μL total) spiked with or without recombinant M^Pro (250 nM final) was treated with DTT (1 mM final) and various concentrations of SM144 (0-5 μM final). […] All these reactions were incubated at 25° C. for 30 min. Then TAMRA-N3 (100 μM), TCEP (1 mM), TBTA (0.3 mM) and freshly prepared copper (II) sulphate (4 mM) were added sequentially to the reaction mixture. The tubes were then gently tumbled at room temperature for 2 h. The precipitated proteins were collected by centrifugation at 5000 rpm for 6 min. The protein pellets were resuspended in 5×SDS-PAGE loading dye, heated at 95° C. for 10 min and separated by SDS-PAGE. Protein bands were visualized by recording in-gel fluorescence using a typhoon scanner (excitation/emission maxima ˜546/579 nm). All the experiments were performed in duplicate.

SARS-CoV-2 PL^Pro = SARS-CoV-2 PL^Pro (Severe acute respiratory syndrome coronavirus 2, UniProt P0DTD1); experiment: Determination of IC50 values for SARS-CoV-2 PL^Pro (Z-RLRGG-AMC substrate); format: biochemical
SARS-CoV-2 M^Pro [3] = target: T1, SARS-CoV-2 M^Pro; experiment: Determination of KI values for SARS-CoV-2 M^Pro (initial velocity, competitive inhibition); format: biochemical
SARS-CoV-2 M^Pro [4] = target: T1, SARS-CoV-2 M^Pro; experiment: Determination of IC50 values for SARS-CoV-2 M^Pro (fluorogenic peptide substrate, end-point); format: biochemical
[5] = Severe acute respiratory syndrome coronavirus 2, A549-hACE2 cells
[6] = Severe acute respiratory syndrome coronavirus 2
[7] = male, C57Bl/6, mouse, plasma, iv, 3 mg/kg
[8] = male, C57Bl/6, mouse, plasma, po, 10 mg/kg
[9] = 30 nM PL^Pro, 20 min preincubation, read-out: PL^Pro IC50
[10] = competitive inhibition, initial velocity, read-out: M^Pro Ki
[11] = 12.5 nM M^Pro, 20 min preincubation, 30 μM substrate, read-out: M^Pro IC50

T2 sequence (P07711 114-333): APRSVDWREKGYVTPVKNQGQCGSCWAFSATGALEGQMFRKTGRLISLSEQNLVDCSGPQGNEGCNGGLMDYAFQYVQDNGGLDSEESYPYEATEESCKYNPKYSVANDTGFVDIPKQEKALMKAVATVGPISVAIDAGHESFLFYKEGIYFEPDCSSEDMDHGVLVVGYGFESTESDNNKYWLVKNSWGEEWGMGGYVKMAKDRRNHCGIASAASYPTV

| SMILES | IC50 (Cathepsin L) [nM] | kinact/KI (Cathepsin L) [M⁻¹ s⁻¹] | EC50 (SARS-CoV-2; [5]) [nM] | IC50 (SARS-CoV-2; [6]) [nM] | IC50 (Cathepsin B) [nM] | oral bioavailability / oral absorption, in words ([2]; mice) | tissue distribution, in words ([2]; mice) | CI_Obs ([2]; mice) [mL/min/kg] | labeling of M^Pro in spiked A549-hACE2 lysate / its inhibition (M^Pro) | inhibition of papain-like protease (PL^Pro), in words (SARS-CoV-2 PL^Pro) | IC50 (SARS-CoV-2 PL^Pro; [9]) [nM] | Ki (SARS-CoV-2 M^Pro [3]; [10]) [nM] | IC50 (SARS-CoV-2 M^Pro [4]; [11]) [nM] | further results |
| --- | --- | --- | --- | --- | --- | --- | --- | --- | --- | --- | --- | --- | --- | --- |
| CCOC(=O)C=CC(CC1CCNC1=O)NC(=O)C(Cc1ccccc1)NC(=O)C(Cc1ccc(F)cc1)NC(=O)OC(C)(C)C (stereo not shown) [SM142] | 145 | 1830 | 14.7 | 14.7 | 40000 ± 9000 | significant oral absorption | much higher tissue distribution than SM141 | 169 | dose dependently inhibited | completely inactive | > 50000 | 10000 | 1800 | kinact/KI (SARS-CoV-2 M^Pro [1]; read-out: M^Pro kinact/KI): 183 M⁻¹ s⁻¹; half-life ([2]; male, C57Bl/6, mouse, in vivo, po, 10 mg/kg): 2.1 h; AUC(0-inf) [2, 7]: 308 ng·h/mL; AUC(0-t) [2, 7]: 0.4 µM·h; Cmax [2, 7]: 400 nM; MRT inf [2, 7]: 1.9 h; Tmax [2, 7]: 4.8 min; Vd [2, 7]: 13.2 L/kg; half-life [2, 7]: 2.1 h; AUC(0-inf) [2, 8]: 347 ng·h/mL; AUC(0-t) [2, 8]: 0.5 µM·h; Cmax [2, 8]: 600 nM; Tmax [2, 8]: 4.8 min; bioavailability [2, 8]: 37.5% |
| CCOC(=O)C=CC(CC1CCNC1=O)NC(=O)C(Cc1ccccc1)NC(=O)C(N)Cc1ccccc1 (stereo not shown) [SM141] | 60 | – | 8.2 | 8.2 | > 50000 | minimal oral bioavailability | lower tissue distribution | 71.5 | dose dependently inhibited | completely inactive | – | – | – | antiviral activity, in words (SARS-CoV-2; A549-hACE2 cells, 2 μM, 24 h): almost completely blocks viral infection; EC90 (SARS-CoV-2; A549-hACE2 cells): 22 nM; EC90 (SARS-CoV-2; [5]): 22.1 nM; plasma half-life (T1/2), in words ([2]; mice): about an hour; IC50 (SARS-CoV-2 PL^Pro): > 50000 nM; Ki (SARS-CoV-2 M^Pro [3]): 9000 nM; IC50 (SARS-CoV-2 M^Pro [4]): 900 nM |
| C#CCOCCC(=O)NC(Cc1ccc(F)cc1)C(=O)NC(Cc1ccccc1)C(=O)NC(C=CC(=O)OCC)CC1CCNC1=O (stereo not shown) [SM144] | 220 | 1000 | – | – | > 50000 | – | – | – | selectively labels M^Pro in a dose-dependent manner | – | > 50000 | 4500 | 700 | kinact/KI (SARS-CoV-2 M^Pro [1]; read-out: second-order rate constant for enzyme inactivation (kinact/KI), M^Pro): 567 M⁻¹ s⁻¹; antiviral activity compared with SM141 and SM142 (SARS-CoV-2; A549-hACE2 cells): significantly lower antiviral activity than SM141 and SM142 |

Reference: patent US20250326715A1, “NOVEL MAIN PROTEASE INHIBITORS, AND COMPOSITIONS AND METHODS THEREOF” (University of Massachusetts, priority 2023, published 2025)
